Source: patent US20060069132A1, “Azolecarboxamide herbicides” (priority 2004, published 2006)

What was measured:
[1] = system: barnyardgrass; assay: Test B pre-/postemergence herbicide test; type: in vivo, Echinochloa crus-galli; settings: for Plant response rating (0 to 100 scale), Barnyardgrass: 0 is no effect, preemergence; for Barnyardgrass plant response rating: postemergence
Summary of the method: (§1)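 Formulation: non-phytotoxic solvent mix with surfactant. Timing: preemergence on seed and postemergence on 2–18 cm plants, applied concurrently. Readout after 13–15 d greenhouse: visual 0–100 control rating against controls.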

[2] = system: Surinam grass; assay: Test B pre-/postemergence herbicide test; type: in vivo, Urochloa decumbens; settings: for Plant response rating (0 to 100 scale), Surinam Grass: 0 is no effect, 100 is complete control, preemergence; for Surinam Grass plant response rating: scale 0 (no effect) to 100 (complete control)
Summary of the method: as §1

[3] = system: cocklebur; assay: Test B pre-/postemergence herbicide test; type: in vivo, Xanthium strumarium; settings: for Plant response rating (0 to 100 scale), Cocklebur: 0 is no effect, preemergence; for Cocklebur plant response rating: postemergence
Summary of the method: as §1

[4] = system: corn; assay: Test B pre-/postemergence herbicide test; type: in vivo, Zea mays; settings: for Plant response rating (0 to 100 scale), Corn: 0 is no effect, preemergence; for Corn plant response rating: postemergence
Summary of the method: as §1

[5] = system: large crabgrass; assay: Test B pre-/postemergence herbicide test; type: in vivo, Digitaria sanguinalis; settings: for Plant response rating (0 to 100 scale), Crabgrass, Large: 0 is no effect, preemergence; for Crabgrass, Large plant response rating: postemergence
Summary of the method: as §1

[6] = system: giant foxtail; assay: Test B pre-/postemergence herbicide test; type: in vivo, Setaria faberi; settings: for Plant response rating (0 to 100 scale), Foxtail, Giant: 0 is no effect, preemergence; for Foxtail, Giant plant response rating: postemergence
Summary of the method: as §1

[7] = system: lambsquarters; assay: Test B pre-/postemergence herbicide test; type: in vivo, Chenopodium album; settings: for Plant response rating (0 to 100 scale), Lambsquarters: 0 is no effect, 100 is complete control, preemergence; for Lambsquarters plant response rating: scale 0 (no effect) to 100 (complete control)
Summary of the method: as §1

[8] = system: morningglory; assay: Test B pre-/postemergence herbicide test; type: in vivo, Ipomoea coccinea; settings: for Plant response rating (0 to 100 scale), Morningglory: 0 is no effect, 100 is complete control, preemergence; for Morningglory plant response rating: scale 0 (no effect) to 100 (complete control)
Summary of the method: as §1

[9] = system: pigweed; assay: Test B pre-/postemergence herbicide test; type: in vivo, Amaranthus retroflexus; settings: for Plant response rating (0 to 100 scale), Pigweed: 0 is no effect, 100 is complete control, preemergence; for Pigweed plant response rating: scale 0 (no effect) to 100 (complete control)
Summary of the method: as §1

[10] = system: velvetleaf; assay: Test B pre-/postemergence herbicide test; type: in vivo, Abutilon theophrasti; settings: for Plant response rating (0 to 100 scale), Velvetleaf: 0 is no effect, 100 is complete control, preemergence; for Velvetleaf plant response rating: scale 0 (no effect) to 100 (complete control)
Summary of the method: as §1

[11] = system: blackgrass; assay: Test B postemergence herbicide test; type: in vivo, Alopecurus myosuroides; settings: postemergence
Summary of the method: (§2)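 Scale 0–100: zero equals no visible effect, 100 complete control, judged by eye relative to controls. Timing: 13 to 15 days in greenhouse post-treatment. Growth stage at spraying: two leaves (paddy) or one to four leaves, 2–18 cm (postemergence).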

[12] = system: wheat; assay: Test B postemergence herbicide test; type: in vivo, Triticum aestivum; set-up: key to Wheat plant response rating: 0 = no effect, 100 = complete control
Summary of the method: (§3)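 Greenhouse test; postemergence application to plants at 1–4 leaves (2–18 cm); paddy species at 2 leaves; evaluated visually vs controls at 13–15 days; scale 0–100 (100 = complete control).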

[13] = system: wild oat; assay: Test B postemergence herbicide test; type: in vivo, Avena fatua; settings: scale 0 (no effect) to 100 (complete control)
Summary of the method: as §3

[14] = system: rice; assay: Test B flooded paddy test; type: in vivo, Oryza sativa; settings: 1000 g ai/ha, scale 0 to 100 (0 no effect, 100 complete control)
Summary of the method: as §2

[15] = system: small flower umbrella sedge; assay: Test B flooded paddy test; type: in vivo, Cyperus difformis; settings: 1000 g ai/ha, scale 0 to 100 (0 no effect, 100 complete control)
Summary of the method: as §2

[16] = system: ducksalad; assay: Test B flooded paddy test; type: in vivo, Heteranthera limosa; settings: 1000 g ai/ha, scale 0 to 100 (0 no effect, 100 complete control)
Summary of the method: as §2

[17] = system: barnyardgrass; assay: Test B flooded paddy test; type: in vivo, Echinochloa crus-galli; settings: 1000 g ai/ha, scale 0 to 100 (0 no effect, 100 complete control)
Summary of the method: as §2

[18] = 125 g ai/ha, 100 is complete control
[19] = 125 g ai/ha, visual rating, scale 0 (no effect) to 100 (complete control)
[20] = 500 g ai/ha, scale 0 to 100, 0 is no effect, 100 is complete control
[21] = 125 g ai/ha, visual rating, postemergence
[22] = 125 g ai/ha, visual rating, scale 0 (no effect) to 100 (complete control), postemergence
[23] = 500 g ai/ha, scale 0 to 100, 0 no effect, 100 complete control, preemergence
[24] = Postemergence, 500 g ai/ha, scale 0 (no effect) to 100 (complete control)

For `CCc1nn(C(C)(C)C)nc1C(=O)Nc1cc(C(=O)N2CCCCC2)ccc1F` [Compound 381], the “Plant response rating (0 to 100 scale), Barnyardgrass” value [1, 18] was 10, the “Barnyardgrass plant response rating” value [1, 19] was 0 and the “Barnyardgrass plant response rating” value [1, 20] was 0. For the same compound, the “Plant response rating (0 to 100 scale), Surinam Grass” value ([2]; 125 g ai/ha) was 20, the “Surinam Grass plant response rating” value [2, 21] was 10 and the “Surinam Grass plant response rating” value ([2]; Postemergence, 500 g ai/ha) was 40. For the same compound, the “Plant response rating (0 to 100 scale), Cocklebur” value [3, 18] was 0, the “Cocklebur plant response rating” value [3, 19] was 20 and the “Cocklebur plant response rating” value [3, 20] was 20. The “Plant response rating (0 to 100 scale), Corn” value [4, 18] was 0, the “Corn plant response rating” value [4, 19] was 0 and the “Corn plant response rating” value [4, 20] was 10. For the same compound, the “Plant response rating (0 to 100 scale), Crabgrass, Large” value [5, 18] was 70, the “Crabgrass, Large plant response rating” value [5, 19] was 10 and the “Crabgrass, Large plant response rating” value [5, 20] was 20. The “Plant response rating (0 to 100 scale), Foxtail, Giant” value [6, 18] was 10, the “Foxtail, Giant plant response rating” value [6, 19] was 10 and the “Foxtail, Giant plant response rating” value [6, 20] was 20. The “Plant response rating (0 to 100 scale), Lambsquarters” value ([7]; 125 g ai/ha) was 40, the “Lambsquarters plant response rating” value [7, 21] was 70 and the “Lambsquarters plant response rating” value ([7]; Postemergence, 500 g ai/ha) was 80. For the same compound, the “Plant response rating (0 to 100 scale), Morningglory” value ([8]; 125 g ai/ha) was 0, the “Morningglory plant response rating” value [8, 21] was 20 and the “Morningglory plant response rating” value ([8]; Postemergence, 500 g ai/ha) was 80. For the same compound, the “Plant response rating (0 to 100 scale), Pigweed” value ([9]; 125 g ai/ha) was 0, the “Pigweed plant response rating” value [9, 21] was 20 and the “Pigweed plant response rating” value ([9]; Postemergence, 500 g ai/ha) was 30. For the same compound, the “Plant response rating (0 to 100 scale), Velvetleaf” value ([10]; 125 g ai/ha) was 10, the “Velvetleaf plant response rating” value [10, 21] was 10 and the “Velvetleaf plant response rating” value ([10]; Postemergence, 500 g ai/ha) was 40. The “Blackgrass plant response rating” value [11, 19] was 20, the “Blackgrass plant response rating” value [11, 20] was 30 and the “Wheat plant response rating” value [12, 22] was 10. The “Wheat plant response rating” value [12, 23] was 20, the “Wheat plant response rating” value [12, 24] was 20 and the “Oat, Wild plant response rating” value [13, 21] was 10. The “Oat, Wild plant response rating” value ([13]; Postemergence, 500 g ai/ha) was 20, the “Rice plant response rating” value [14] was 60 and the “Sedge, Umbrella plant response rating” value [15] was 70. The “Ducksalad plant response rating” value [16] was 70 and the “Barnyardgrass plant response rating” value [17] was 10.
For `C=CCN(CC=C)C(=O)c1ccc(F)c(NC(=O)c2nn(C(C)(C)C)nc2CC)c1` [Compound 387], the “Plant response rating (0 to 100 scale), Barnyardgrass” value [1, 18] was 0, the “Barnyardgrass plant response rating” value [1, 19] was 0 and the “Barnyardgrass plant response rating” value [1, 20] was 0. The “Plant response rating (0 to 100 scale), Surinam Grass” value ([2]; 125 g ai/ha) was 0, the “Surinam Grass plant response rating” value [2, 21] was 0 and the “Surinam Grass plant response rating” value ([2]; Postemergence, 500 g ai/ha) was 0. For the same compound, the “Plant response rating (0 to 100 scale), Cocklebur” value [3, 18] was 0, the “Cocklebur plant response rating” value [3, 19] was 0 and the “Cocklebur plant response rating” value [3, 20] was 20. The “Plant response rating (0 to 100 scale), Corn” value [4, 18] was 0, the “Corn plant response rating” value [4, 19] was 0 and the “Corn plant response rating” value [4, 20] was 0. For the same compound, the “Plant response rating (0 to 100 scale), Crabgrass, Large” value [5, 18] was 0, the “Crabgrass, Large plant response rating” value [5, 19] was 0 and the “Crabgrass, Large plant response rating” value [5, 20] was 0. The “Plant response rating (0 to 100 scale), Foxtail, Giant” value [6, 18] was 0, the “Foxtail, Giant plant response rating” value [6, 19] was 0 and the “Foxtail, Giant plant response rating” value [6, 20] was 20. The “Plant response rating (0 to 100 scale), Lambsquarters” value ([7]; 125 g ai/ha) was 0, the “Lambsquarters plant response rating” value [7, 21] was 20 and the “Lambsquarters plant response rating” value ([7]; Postemergence, 500 g ai/ha) was 20. The “Plant response rating (0 to 100 scale), Morningglory” value ([8]; 125 g ai/ha) was 0, the “Morningglory plant response rating” value [8, 21] was 0 and the “Morningglory plant response rating” value ([8]; Postemergence, 500 g ai/ha) was 10. The “Plant response rating (0 to 100 scale), Pigweed” value ([9]; 125 g ai/ha) was 0, the “Pigweed plant response rating” value [9, 21] was 20 and the “Pigweed plant response rating” value ([9]; Postemergence, 500 g ai/ha) was 40. The “Plant response rating (0 to 100 scale), Velvetleaf” value ([10]; 125 g ai/ha) was 0, the “Velvetleaf plant response rating” value [10, 21] was 0 and the “Velvetleaf plant response rating” value ([10]; Postemergence, 500 g ai/ha) was 10. For the same compound, the “Blackgrass plant response rating” value [11, 19] was 0, the “Blackgrass plant response rating” value [11, 20] was 20 and the “Wheat plant response rating” value [12, 22] was 0. For the same compound, the “Wheat plant response rating” value [12, 23] was 0, the “Wheat plant response rating” value [12, 24] was 10 and the “Oat, Wild plant response rating” value [13, 21] was 0. For the same compound, the “Oat, Wild plant response rating” value ([13]; Postemergence, 500 g ai/ha) was 30, the “Rice plant response rating” value [14] was 0 and the “Sedge, Umbrella plant response rating” value [15] was 0. For the same compound, the “Ducksalad plant response rating” value [16] was 0 and the “Barnyardgrass plant response rating” value [17] was 0.
